Assay results taken from patent US20150219673A1, “THE USE OF GENE EXPRESSION PROFILING AS A BIOMARKER FOR ASSESSING THE EFFICACY OF HDAC INHIBITOR TREATMENT IN NEURODEGENERATIVE CONDITIONS” (Massachusetts Institute of Technology, priority 2012, published 2015).

Columns and labels:
[1] = test system: peripheral blood mononuclear cells of 5XFAD mice; assay: RNA sequencing of peripheral blood mononuclear cells of 5XFAD mice after CI-994 treatment; type: in vivo, mouse; conditions: PBMC, CI-994 1 mg/kg i.p. every other day 1 month, FIG. 2
Experimental: After completion of treatment, blood was drawn and peripheral blood mononuclear cells were rapidly isolated. The cells were washed with PBS and total RNA was extracted using the RNeasy kit (Qiagen). RNA integrity was analyzed using the Bioanalyzer 2100 (Agilent) and the libraries were prepared using the Ovation Ultralow Library System kit (NuGen). Libraries were then pooled in equal amounts and high-throughput sequencing was performed on an Illumina HiSeq 2000 platform. Two individual biological replicates per condition were sequenced.

cognitive function = conditions: cited from earlier work

CC(=O)Nc1ccc(C(=O)Nc2ccccc2N)cc1 [CI-994, 4-(acetylamino)-N-(2-aminophenyl)benzamide]
number of differentially expressed genes (wild type vs 5XFAD) rescued to control levels [1]: 69 genes | AD-related cognitive impairments (cognitive function; earlier finding stated for CI-994): reduce AD-related cognitive impairments | cognitive function in vivo (cognitive function; see US 2011/0224303): improve cognitive function in vivo
